# Patent US9517225B2, “Low dose lipoic acid pharmaceutical compositions and methods” (ENCORE HEALTH, LLC, priority 2008, dated 2016)
# Assays:
# Type in all cases: cell-based
# [1] = tested on: human umbilical vein endothelial cells (HUVEC, first passage); assay: In vitro toxicology: cell viability, MultiTox-Fluor or Live/Dead assay; details: doses ranging from 0.1 μM to 100 μM
# Description: Cell viability was determined using human umbilical vein endothelial cells (HUVEC, first passage). Cells were treated with the active agent in doses ranging from 0.1 μM to 100 μM. The number of live and dead cells was determined using the MultiTox-Fluor assay (Promega) or Live/Deadly® assay (Invitrogen). Logistic plots were used to determine the compound's LD50 value. Lipoic acid was not cytotoxic in the concentration range.
# [2] = tested on: protein disulfides in the mouse lenses; assay: Decrease in disulfide bonds: protein SH/SS in lens homogenates by fluorescent alkylation; details: FIG. 5, p≦0.05 vs control
# Description: FIG. 5 depicts a scattergram of the percent of the total protein SH groups in disulfide bonds. Free SH groups were alkylated with 4-acetamido-4′-maleimidylstilbene-2,2′-sulfonic acid (c, 1 μM, 5 μM, 9.6 μM, 50 μM, 96 μM) or 7-diethylamino-3-(4′maleimidylphenyl)-4-methyl coumarin (500 μM, and 500 μM c). Following removal of the first alkylating agent, the S—S bonds were reduced and alkylated with fluorescein-5-maleimide. Absorption spectra were used to calculated total protein (A280 nm), free protein SH (A322 or A384), and protein SS (A490) using the appropriate extinction coefficients. The symbol ‡ indicates statistically significant difference of mean with mean of control (c, p≦0.05).
# Mouse lenses were homogenized in a denaturing buffer containing a fluorescent alkylating agent to modify the free SH groups. After removing the alkylating agent homogenates were reduced and alkylated with a different fluorescent alkylating agent. Absorption spectra of the modified proteins were used to calculate free protein SH and protein SS groups.
# mouse lenses = assay: Increase in elasticity: lens organ culture, change in lens diameter under coverslip (ΔD); details: mouse lenses incubated 8-15 hours, 0.5 μM to 500 μM tested, p<0.0001
# Description: FIG. 4 depicts a scatter plot of the change in ΔD (micrometers) in the absence (control) and presence of lipoic acid in lens organ culture experiments. […] Statistical values are highly significant at p<0.0001 by unpaired t-test and by Kruskal Wallis test, which compared medians of each data set. The relative change in Young's modulus (E) can be calculated as the cubic value derived from the ΔD of the control divided by the ΔD of the experimental or E fractional change=(ΔD con/ΔDexp)^3.
# Increase in Elasticity: Pairs of mouse lenses were incubated in medium 200 supplemented with an antibiotic, an antimycotic, in the presence or absence of lipoic acid (concentrations ranging from 0.5 μM to 500 μM) for 8-15 hours. Each lens was removed from medium, weighed, and photographed on a micrometer scale. A coverslip of known weight (0.17899±0.00200 g) was placed on the lens, and the lens was photographed again on the micrometer scale. The diameter of each lens with and without the coverslip was determined from the photographs. The change in lens diameter produced by the force (coverslip) was computed ΔD=(Dwithcoverslip−Dwithoutcoverslip).
smiles,measurement,setting,value
"O=C(O)CCCCC1CCSS1 (stereo not drawn) [lipoic acid, 5-(1,2-dithiolan-3-yl)pentanoic acid]",cytotoxicity (live and dead cells),[1],not cytotoxic
same,concentrations causing a statistically significant decrease in protein disulfides,[2],≥ 9.6 µM
same,concentrations causing a statistically significant increase in ΔD,mouse lenses,≥ 9.6 µM
